Measurements published in US20010056184A1, “Pipecolinic acid derivatives, method of manufacturing the same and therapeutic agents containing these compounds” (priority 2000, published 2001).

Columns and labels:
Format in all cases: biochemical
[1] = target: T1, human fibroblasts derived MMP-1 (type I collagenase) (Homo sapiens, UniProt P03956); experiment: MMP-1 (type I collagenase) inhibitory activities, fluorogenic substrate enzyme assay; details: for IC50: 37° C., 4 h, substrate 10 μM; for inhibition at 10 µM: at 10^−5M, NE means no effect, read-out: MMP-1 inhibition percent
T1 construct: human fibroblasts derived MMP-1 (Yagai Co. Ltd.) as enzyme; purchased Yagai Co. Ltd; host or cells: human fibroblasts
T1 sequence (P03956 100-469): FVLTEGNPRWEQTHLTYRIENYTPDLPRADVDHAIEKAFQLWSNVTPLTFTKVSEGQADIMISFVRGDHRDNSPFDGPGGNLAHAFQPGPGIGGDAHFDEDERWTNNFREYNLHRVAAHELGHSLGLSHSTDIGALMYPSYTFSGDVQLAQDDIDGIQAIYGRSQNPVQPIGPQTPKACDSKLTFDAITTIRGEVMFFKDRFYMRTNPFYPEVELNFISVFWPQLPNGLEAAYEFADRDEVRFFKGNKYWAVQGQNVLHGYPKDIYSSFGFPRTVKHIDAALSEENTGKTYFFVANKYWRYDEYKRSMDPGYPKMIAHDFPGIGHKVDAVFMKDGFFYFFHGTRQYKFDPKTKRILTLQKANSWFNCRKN
Procedure: Examination 1: MMP-1 (type I collagenase) inhibitory activities.
Inhibitory activities of MMP-1 (type I collagenase) activities were estimated by enzyme assay using human fibroblasts derived MMP-1 (Yagai Co. Ltd.) as enzyme, and MOCAc-Pro-Leu-Gly-Leu-A2pr(Dnp)-Ala-Arg-NH2 (Peptide Research Center, 3163-v) as substrate. Thus, MMP-1 (0.01 U/ml), test compound (10^−10˜10^−5 M), and the substrate (10 μM) were incubated in 50 mM Tris-HCl buffer (pH 7.4) containing 0.2M NaCl, 10 mM CaCl2, 0.02% NaN3, and 0.05% Brij 35 at 37° C. for 4 h. The reaction was stopped by adding of 4 volumes of sodium acetate buffer (pH 4.0), and the degradation of substrate was calculated by measurement with a fluorescence intensity (λ ex 328 nm, λ em 393 nm). Inhibition of degradation of substrate in the presence of compound was determined by comparison with the degradation percent of substrate in the absence of compound, and concentration of 50% inhibition (IC50 value) was calculated.

[2] = target: T2, MMP-2 (gelatinase A) (Homo sapiens, UniProt P08253); experiment: MMP-2 (gelatinase A) inhibitory activities, fluorogenic substrate enzyme assay; details: 42° C., 2 h, substrate 10 μM
T2 construct: made in house; host or cells: COS-1 cells (secreted into culture medium)
T2 sequence (P08253 110-660): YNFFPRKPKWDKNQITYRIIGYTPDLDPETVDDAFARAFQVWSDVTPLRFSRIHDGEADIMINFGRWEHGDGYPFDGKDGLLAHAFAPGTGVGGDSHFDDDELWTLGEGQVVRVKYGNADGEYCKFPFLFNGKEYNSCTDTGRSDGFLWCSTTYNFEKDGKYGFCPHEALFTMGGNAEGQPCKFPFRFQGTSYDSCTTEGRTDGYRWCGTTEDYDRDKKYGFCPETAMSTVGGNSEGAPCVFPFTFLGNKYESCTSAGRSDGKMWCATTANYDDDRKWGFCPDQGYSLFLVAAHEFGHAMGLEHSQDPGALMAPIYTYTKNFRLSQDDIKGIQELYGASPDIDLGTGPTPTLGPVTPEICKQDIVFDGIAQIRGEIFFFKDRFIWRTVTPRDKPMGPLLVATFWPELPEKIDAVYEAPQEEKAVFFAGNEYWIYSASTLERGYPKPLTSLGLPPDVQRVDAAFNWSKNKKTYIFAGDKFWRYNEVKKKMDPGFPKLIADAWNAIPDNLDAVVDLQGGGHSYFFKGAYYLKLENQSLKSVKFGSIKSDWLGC
Procedure: (§1) Examination 2: MMP-2 (gelatinase A) and MMP-9 (gelatinase B) inhibitory activities.
(§2) Pro MMP-2 was obtained from culture medium separated from human pro-MMP-2 cDNA tranfected COS-1 cells. Pro MMP-2 activated by 1 mM (4-aminophenyl) mercury acetic acid and MMP-9, derived human fibrosarcome (Yagai Co. Ltd.), were used as enzyme respectively. Inhibition of both enzyme activities were estimated by enzyme assay using MOCAc-Pro-Leu-Gly-Leu-A2pr(Dnp)-Ala-Arg-NH2 (Peptide Research Center, 3163-v) as substrate. Thus, MMP-2 or MMP-9 (0.01 U/ml), test compound (several concentrations), and the substrate (10 μM) were incubated in 50 mM Tris - HCl buffer (pH 7.4) containing 0.2M NaCl, 10 mM CaCl2, 0.02% NaN3, and 0.05% Brij 35 at 42° C. for 2 h (MMP-2), 3 h (MMP-9) respectively. Inhibition of degradation of substrate in the presence of compound was determined by comparison with the degradation of substrate in the absence of compound, and concentration of 50% inhibition (IC50 value) was calculated.

[3] = target: T3, MMP-9 (gelatinase B) (Homo sapiens, UniProt P14780); experiment: MMP-9 (gelatinase B) inhibitory activities, fluorogenic substrate enzyme assay; details: 42° C., 3 h, substrate 10 μM
T3 construct: MMP-9, derived human fibrosarcome (Yagai Co. Ltd.), were used as enzyme respectively; purchased Yagai Co. Ltd; host or cells: human fibrosarcoma
Procedure: as §1, §2

[4] = target: T4, Δ MT1-MMP (Δ MMP-14) (Homo sapiens, UniProt P50281); experiment: Δ MT1-MMP (Δ MMP-14) inhibitory activities, fluorogenic substrate enzyme assay; details: 37° C., 30 min, substrate 10 μM; read-out: ΔMMP-14 IC50
T4 construct: ProMT1-MMP cDNA encoded extracellular domain of pro Δ MT1-MMP was tranfected E. coli BL21DE3; made in house; host or cells: E. coli BL21DE3 (inclusion bodies, 8M urea, ion exchange)
From the text: Examination 3: Δ MT1-MMP (Δ MMP-14) inhibitory activities.
ProMT1-MMP cDNA encoded extracellular domain of pro Δ MT1-MMP was tranfected E. coli BL21DE3, pro Δ MT1-MMP collected as inclusion body was solved using 8M urea, and it was pulified by ion exchenge column chlomatography. Inhibition of enzyme activities were estimated by enzyme assay using activated Δ MT1-MMP, obtained from activation of pro Δ MT1-MMP by 10 μ/ml tripsine, and MOCAc-Pro-Leu-Gly-Leu-A2pr(Dnp)-Ala-Arg-NH2 (Peptide Research Center, 3163-v) as substrate. Thus, Δ MT1-MMP, test compound (several concentrations), and the substrate (10 μM) were incubated in 50 mM Tris - HCl buffer (pH 7.4) containing 0.2M NaCl, 10 mM CaCl2, 0.02% NaN3, 0.05% Brij 35, and 10 μM leuipeputine at 37° C. for 30 min. The reaction was stopped by adding of 4 volumes of sodium acetate buffer (pH 4.0), and the degradation of substrate was calculated by measurement with a fluorescence intensity (λ ex 328 nm, λ em 393 nm). Inhibition of degradation of substrate in the presence of compound was determined by comparison with the degradation of substrate in the absence of compound, and concentration of 50% inhibition (IC50 value) was calculated.

T3 sequence (P14780 94-707): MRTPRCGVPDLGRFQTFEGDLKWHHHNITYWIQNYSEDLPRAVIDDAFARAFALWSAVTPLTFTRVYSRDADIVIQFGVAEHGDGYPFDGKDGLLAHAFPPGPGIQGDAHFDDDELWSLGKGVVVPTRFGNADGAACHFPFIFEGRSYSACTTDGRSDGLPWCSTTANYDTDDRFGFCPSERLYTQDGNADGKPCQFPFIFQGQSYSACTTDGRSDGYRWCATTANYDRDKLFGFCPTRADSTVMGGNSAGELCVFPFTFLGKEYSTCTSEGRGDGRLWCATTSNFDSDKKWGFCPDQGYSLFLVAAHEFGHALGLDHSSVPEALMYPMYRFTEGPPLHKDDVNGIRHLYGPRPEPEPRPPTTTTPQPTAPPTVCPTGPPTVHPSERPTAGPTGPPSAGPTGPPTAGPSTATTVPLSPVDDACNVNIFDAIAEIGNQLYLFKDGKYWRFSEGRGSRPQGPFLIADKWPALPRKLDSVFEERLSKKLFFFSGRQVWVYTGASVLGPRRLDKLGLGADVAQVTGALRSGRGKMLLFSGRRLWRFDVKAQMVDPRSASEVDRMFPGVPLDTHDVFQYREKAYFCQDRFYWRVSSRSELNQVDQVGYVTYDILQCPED

| IC50 [1] | IC50 [2] | IC50 [3] | IC50 [4] | inhibition at 10 µM [1] | Structure (SMILES) |
| --- | --- | --- | --- | --- | --- |
| 4900 nM | 2.9 nM | 890 nM | 130 nM |  | O=C(N[C@@H]1CCN(S(=O)(=O)c2ccc(-c3ccc(O)cc3)cc2)[C@@H](C(=O)NO)C1)c1ccccc1 [Compound 60, (2R, 4R)-4-Benzoylamino-2-hydroxyaminocarbonyl-1-[4-(4-hydroxyphenyl)benzenesulfonyl]-piperidine] |
|  | 2.7 nM | 19 nM | 49 nM | 44.6% | COc1ccc(-c2ccc(S(=O)(=O)N3CC[C@@H](NCCCC(C)C)C[C@@H]3C(=O)NO)cc2)cc1 [Compound 61, (2R, 4R)-2-Hydroxyaminocarbonyl-1-[4-(4-methoxyphenyl)benzenesulfonyl]-4-(4-methylpentylamino)-piperidine] |
| 870 nM | 0.93 nM | 3.2 nM | 45 nM |  | COc1ccc(CN[C@@H]2CCN(S(=O)(=O)c3ccc(-c4ccc(OC)cc4)cc3)[C@@H](C(=O)NO)C2)cc1 [Compound 62, (2R, 4R)-2-Hydroxyaminocarbonyl-4-(4-methoxybenzylamino)-1-[4-(4-methoxyphenyl)benzenesulfonyl]-piperidine] |
| 510 nM | 28 nM | 31 nM | 17 nM |  | CC(C)CCC(=O)N[C@@H]1CCN(S(=O)(=O)c2ccc(O)cc2)[C@@H](C(=O)NO)C1 [Compound 63] |
| 650 nM | 0.91 nM | 0.72 nM | 8.9 nM |  | COc1ccc(-c2ccc(S(=O)(=O)N3CC[C@@H](NC(C)=O)C[C@@H]3C(=O)NO)cc2)cc1 [Compound 64, (2R, 4R)-4-Acetylamino-2-hydroxyaminocarbonyl-1-[4-(4-methoxyphenyl)benzenesulfonyl]-piperidine] |
| 870 nM | 4.8 nM | 51 nM | 23 nM |  | CC(=O)N[C@@H]1CCN(S(=O)(=O)c2ccc(-c3ccc(O)cc3)cc2)[C@@H](C(=O)NO)C1 [Compound 65, (2R, 4R)-4-Acetylamino-2-hydroxyaminocarbonyl-1-[4-(4-hydroxyphenyl)benzenesulfonyl]-piperidine] |
| 530 nM | 4.2 nM | 8.6 nM | 2.1 nM |  | COc1ccc(S(=O)(=O)N2CC[C@@H](NC(C)=O)C[C@@H]2C(=O)NO)cc1 [Compound 66, (2R, 4R)-4-Acetylamino-2-hydroxyaminocarbonyl-1-(4-methoxybenzenesulfonyl)-piperidine] |
| 1200 nM | 22 nM | 36 nM | 1500 nM |  | CC(C)CCC(=O)N[C@@H]1CCN(S(=O)(=O)c2ccc(-c3ccc([N+](=O)[O-])cc3)cc2)[C@@H](C(=O)NO)C1 [Compound 67, (2R, 4R)-2-Hydroxyaminocarbonyl-4-(4-methylpentanoylamino)-1-[4-(4-nitrophenyl)benzenesulfonyl]-piperidine] |
| 5600 nM | 740 nM | 83 nM | 380 nM |  | CC(C)CCCN[C@@H]1CCN(S(=O)(=O)c2cccs2)[C@@H](C(=O)NO)C1 [Compound 70, (2R, 4R)-2-Hydroxyaminocarbonyl-4-(4-methylpentylamino)-1-(2-thiophenesulfonyl)-piperidine] |
| 640 nM | 19 nM | 3.4 nM | 290 nM |  | CC(C)CCC(=O)N[C@@H]1CCN(S(=O)(=O)c2ccc(-c3ccc(Cl)cc3)cc2)[C@@H](C(=O)NO)C1 [Compound 71, (2R, 4R)-1-[4-(4-Chlorohenyl)benzenesulfonyl]-2-hydroxyaminocarbonyl-4-(4-methylpentanoylamino)-piperidine] |
| 37 nM | 3 nM | 1.1 nM | 23 nM |  | CC(=O)N[C@@H]1CCN(S(=O)(=O)c2ccc(-c3ccc(Cl)cc3)cc2)[C@@H](C(=O)NO)C1 [Compound 72, (2R, 4R)-4-Acetylamino-1-[4-(4-chlorohenyl)benzenesulfonyl]-2-hydroxyaminocarbonyl-piperidine] |
|  | 5.2 nM | 13 nM | 74 nM | 48.9% | O=C(N[C@@H]1CCN(S(=O)(=O)c2ccc(-c3ccc(Cl)cc3)cc2)[C@@H](C(=O)NO)C1)c1ccccn1 [Compound 74, (2R, 4R)-1-[4-(4-Chlorophenyl)benzenesulfonyl]-2-hydroxyaminocarbonyl-4-(2-pyridinecarbonylamino)-piperidine] |
| 2500 nM | 15 nM | 16 nM | 890 nM |  | COc1ccc(-c2ccc(S(=O)(=O)N3CC[C@@H](NC(=O)c4ccc([N+](=O)[O-])cc4)C[C@@H]3C(=O)NO)cc2)cc1 [Compound 75, (2R, 4R)-2-Hydroxyaminocarbonyl-1-[4-(4-methoxyphenyl)benzenesulfonyl]-4-(4-nitrobenzoylamino)-piperidine] |
|  | 12 nM | 21 nM | 96 nM | 12.9% | COc1ccc(-c2ccc(S(=O)(=O)N3CC[C@@H](NC(=O)c4c[nH]c5ccccc45)C[C@@H]3C(=O)NO)cc2)cc1 [Compound 76, (2R, 4R)-2-Hydroxyaminocarbonyl-4-(3-indolecarbonylamino)-1-[4-(4-methoxyphenyl)benzenesulfonyl]-piperidine] |
|  | 480 nM | 740 nM | 2300 nM | 32.2% | CC(C)CCC(=O)N[C@@H]1CCN(S(=O)(=O)c2ccc([N+](=O)[O-])cc2)[C@@H](C(=O)NO)C1 [Compound 77, (2R, 4R)-2-Hydroxyaminocarbonyl-4-(4-methylpentanoylamino)-1-(4-nitrobenzenesulfonyl)-piperidine] |
